Test results as given in article PMC4746275, “Norfloxacin and N-Donor Mixed-Ligand Copper(II) Complexes: Synthesis, Albumin Interaction, and Anti-Trypanosoma cruzi Activity” (Bioinorganic Chemistry and Applications, 2016).
Read-outs that look alike come from different tables or passages of the source.

Experiments:
[1] = test system: bloodstream trypomastigotes (BT) forms of T. cruzi (Y strain); experiment: Trypanocidal analysis in vitro on bloodstream trypomastigotes; format: cell-based, Trypanosoma cruzi; details: for SI (selective index: ratio between LC50/EC50 values): LC50 on mammalian cardiac cells (24 h) / EC50 on BT forms; for EC50: mean ± SD, 24 h of incubation at 37°C, Y strain, read-out: EC50 (drug concentration which reduces the number of the parasites by 50%); for times more active than benznidazole: comparison of EC50 values on bloodstream trypomastigotes
Experimental: Y strain of T. cruzi was used throughout the experiments. Bloodstream forms were harvested by heart puncture from T. cruzi-infected Swiss mice at the peak of parasitemia.
For the in vitro analysis on trypomastigotes, the parasites were incubated at 310 K in the presence of increasing doses (0–200 μM) of each compound diluted in Dulbecco's modified Eagle's medium which was supplemented with 5% fetal bovine serum and 1 mM L-glutamine (DMES). After 24 h, death rates were determined by light microscopy through the direct quantification of live parasites using Neubauer chamber, and EC50 values (drug concentration which reduces 50% of the number of live parasites) were then calculated as reported.

[2] = target: T1, human serum albumin (HSA) (Homo sapiens, UniProt P02768); experiment: Quenching of HSA intrinsic fluorescence (Stern-Volmer); format: binding; details: HSA 4 × 10^−6 mol L^−1, 296 K, pH 7.4; standard error 0.2 × 10^4 L mol^−1; corrected for inner filter effect
T1 construct: purchased Sigma-Aldrich
T1 sequence (P02768 25-609): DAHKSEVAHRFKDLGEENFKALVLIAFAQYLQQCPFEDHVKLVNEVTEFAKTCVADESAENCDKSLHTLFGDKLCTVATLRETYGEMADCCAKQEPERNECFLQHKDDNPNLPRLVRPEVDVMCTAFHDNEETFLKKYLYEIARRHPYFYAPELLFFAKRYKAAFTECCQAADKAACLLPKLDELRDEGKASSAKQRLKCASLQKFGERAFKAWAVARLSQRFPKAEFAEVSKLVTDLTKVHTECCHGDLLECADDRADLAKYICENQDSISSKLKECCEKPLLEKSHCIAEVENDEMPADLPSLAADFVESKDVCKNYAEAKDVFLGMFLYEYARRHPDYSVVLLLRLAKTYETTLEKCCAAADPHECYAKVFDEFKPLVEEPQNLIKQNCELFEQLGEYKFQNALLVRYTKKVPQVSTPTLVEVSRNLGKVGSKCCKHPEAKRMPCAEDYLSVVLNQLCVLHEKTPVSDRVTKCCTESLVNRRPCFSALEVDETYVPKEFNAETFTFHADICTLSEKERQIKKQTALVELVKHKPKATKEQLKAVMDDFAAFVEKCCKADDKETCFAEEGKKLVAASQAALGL
Experimental: (§1) Steady state fluorescence measurements were performed on a Varian-Agilent Cary Eclipse or a PTI QM1 fluorescence system. UV-Vis absorption spectra were obtained with an Agilent diode array spectrophotometer model 8452A. Fluorescence lifetimes were measured using IBH-Horiba-Jobin Yvon TCSPC system. NanoLEDs with 1.0 ns nominal pulse duration and 1 MHz repetition rate were used as light sources for exciting the intrinsic HSA or BSA fluorescence (283 nm) and NOR fluorescence (330 nm).
(§2) Quenching measurements of albumin fluorescence were taken in 3 mL of BSA or HSA (4 × 10^−6 mol L^−1) in phosphate buffer 10 mM at pH 7.4. The albumin solutions were titrated by successive additions of the complex stock solutions. The fluorescence emission spectra of BSA and HSA were measured using an excitation wavelength of 290 nm. Experiments were performed at ambient temperature (296 K) and pH 7.4.
(§3) In this section, the quenching of BSA and HSA fluorescence by Cu(II) ions, Cu(II)-bipy, Cu(II)-phen, and complexes 1 and 2 was monitored. All the UV absorption and emission spectra were registered. The fluorescence decay curves with excitation at 283 nm and emission at 340 nm were obtained in the absence of the quenchers, at an intermediary and at the final quencher concentration. The raw data are available in Supplementary Material available online at http://dx.doi.org/10.1155/2016/5027404. The fluorescence intensity was attenuated by absorption of the incident and emitted light. […] The fluorescence spectra were corrected using the following expression:(2) Fcorr=Fobs10^Aex+Aeml/2, where F corr and F obs are the corrected and observed fluorescence intensity, A ex and A em are the absorbance at the excitation and emission wavelengths, respectively, and ℓ is the optical path in cm.
(§4) Quenching of a fluorophore by a drug can occur by a static or dynamic process. Static or dynamic quenching at a single site can be described by the Stern-Volmer equation [36]:(3) F0/F=1+KSVQ, where F 0 and F are the fluorescence intensities of albumins in the absence and presence of complexes, respectively. [Q] is the quencher concentration, and K SV is the Stern-Volmer quenching constant, which is related to the bimolecular collisional process in dynamic quenching but is the association constant in static quenching. Stern-Volmer constants were obtained for the linear region of the plots (Table 3).

[3] = target: T2, bovine serum albumin (BSA) (Bos taurus, UniProt P02769); experiment: Quenching of BSA intrinsic fluorescence (Stern-Volmer); format: binding; details: BSA 4 × 10^−6 mol L^−1, 296 K, pH 7.4; standard error 0.2 × 10^4 L mol^−1; corrected for inner filter effect
T2 construct: purchased Sigma-Aldrich
T2 sequence (P02769 25-607): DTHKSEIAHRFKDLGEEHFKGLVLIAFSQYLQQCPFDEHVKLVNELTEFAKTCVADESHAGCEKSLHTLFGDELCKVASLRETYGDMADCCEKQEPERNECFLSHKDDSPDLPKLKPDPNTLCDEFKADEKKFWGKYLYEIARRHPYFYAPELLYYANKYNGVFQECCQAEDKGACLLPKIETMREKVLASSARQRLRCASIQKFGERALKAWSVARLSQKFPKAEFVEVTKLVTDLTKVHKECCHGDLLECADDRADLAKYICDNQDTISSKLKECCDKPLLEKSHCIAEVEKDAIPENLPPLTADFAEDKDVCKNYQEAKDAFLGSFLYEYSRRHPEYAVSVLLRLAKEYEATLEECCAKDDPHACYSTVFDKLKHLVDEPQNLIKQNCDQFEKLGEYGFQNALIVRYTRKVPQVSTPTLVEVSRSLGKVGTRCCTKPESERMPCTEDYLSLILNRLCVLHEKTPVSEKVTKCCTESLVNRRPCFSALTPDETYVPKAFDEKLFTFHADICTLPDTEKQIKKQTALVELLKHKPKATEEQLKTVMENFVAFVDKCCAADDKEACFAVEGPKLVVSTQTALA
Experimental: as §1, §2, §3, §4

[4] = test system: bloodstream trypomastigotes (BT) forms of T. cruzi (Y strain); parameters: method as in Martins et al., 2012 [14]; details: ref Martins et al., 2012 [14], cited from earlier work; for SI (selective index: ratio between LC50/EC50 values): LC50 on mammalian cardiac cells / EC50 on BT forms; for EC50: mean ± SD, 24 h of incubation at 37°C, Y strain, read-out: EC50 (drug concentration which reduces the number of the parasites by 50%)

Compound	SI (selective index: ratio between LC50/EC50 values) [1]	EC50 ([1]; Trypanosoma cruzi) [µM]	K SV (Stern-Volmer constant) [2] [L/mol]	K SV (Stern-Volmer constant) [3] [L/mol]	SI (selective index: ratio between LC50/EC50 values) [4]	EC50 [4] [µM]	EC50 [1] [µM]	times more active than benznidazole [1]
O=C(Cn1ccnc1[N+](=O)[O-])NCc1ccccc1 [Benznidazole]	77	13 ± 2	–	–	–	–	–	–
[Cu+2] [Cu(II)]	–	–	29000	35000	–	–	–	–
[Cl][Cu][Cl] [CuCl2]	–	–	–	–	6	83 ± 3	–	–
CCn1cc(C(=O)O)c(=O)c2cc(F)c(N3CCNCC3)cc21 [Norfloxacin, 1-ethyl-6-fluoro-1,4-dihydro-4-oxo-7-(1-piperazinyl)-quinoline-3-carboxylic acid]	>1.25	126 ± 30	–	–	–	–	–	–
[Cl][Cu][Cl].c1ccc(-c2ccccn2)nc1 [[CuCl2(bipy)]]	–	–	50000	31000	4.5	14 ± 7	–	–
[CuCl2(NOR)]	0.8	–	–	–	–	–	78 ± 12	–
[CuCl2(phen)(NOR)]·3H2O [complex 2]	2.68	–	49000	37000	–	–	4.4 ± 1.4	2-3 times
[CuCl2(phen)]	–	–	51000	35000	<4	7 ± 5	–	2-3 times
[CuCl(bipy)(NOR)]Cl·2H2O [complex 1]	4	–	58000	30000	–	–	16 ± 4	–
